Measured values as given in patent US8609862B2, “Use of an adrenal hormone-modifying agent” (Novartis AG, priority 2010, dated 2013).

Legend:
[1] = target: T1, CYP11B1 (Rattus norvegicus, UniProt P15393); assay: In vivo CYP11B1 assay: plasma corticosterone concentration (PCC) in ACTH-infused conscious rats; details: ACTH infusion; for % Reduction from baseline PCC t = 1 h: 1 h after dosing; for % Reduction from baseline PCC 8 h: 8 h after dosing
T1 construct: from tissue; host or cells: whole animal: conscious male Sprague-Dawley rats under ACTH infusion (the adrenal gland as site of the enzyme comes from the background, b5)
T1 sequence (P15393 25-499): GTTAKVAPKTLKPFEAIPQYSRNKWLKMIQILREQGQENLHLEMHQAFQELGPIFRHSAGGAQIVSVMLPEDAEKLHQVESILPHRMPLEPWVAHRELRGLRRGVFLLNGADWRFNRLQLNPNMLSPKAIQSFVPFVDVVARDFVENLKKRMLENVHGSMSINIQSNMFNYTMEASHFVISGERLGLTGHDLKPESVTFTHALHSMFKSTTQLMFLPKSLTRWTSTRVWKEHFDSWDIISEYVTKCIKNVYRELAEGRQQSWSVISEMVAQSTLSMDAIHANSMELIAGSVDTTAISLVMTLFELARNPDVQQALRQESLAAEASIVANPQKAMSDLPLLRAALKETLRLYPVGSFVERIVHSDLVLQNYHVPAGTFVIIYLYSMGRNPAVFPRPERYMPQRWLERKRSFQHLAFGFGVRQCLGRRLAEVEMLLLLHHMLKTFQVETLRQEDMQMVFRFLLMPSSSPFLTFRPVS
Protocol: The in vivo effects of compounds on plasma aldosterone concentration (PAC) and plasma glucocorticoid (corticosterone) concentration (PCC) were evaluated in conscious rats.
Male Sprague-Dawley rats (˜400-600 g body weight) were surgically instrumented with a femoral arterial and venous catheter. The catheters were exteriorized from the lower back through a stainless steel spring and swivel system that enabled the rats to move freely at all times. Rats were allowed at least one week to recover from the surgery before initiating the experiments.
On the morning of the experiment, a pretreatment blood sample was collected on heparin from the arterial catheter. The blood samples were spun in a refrigerated centrifuge to generate plasma. The plasma was stored frozen at −70° C. until the later measurement of PAC and PCC (by radioimmunoassay). Adrenocorticotropic hormone (ACTH(1-24), referred to herein as ACTH) was then administered as an intravenous (i.v.) bolus (100 ng/kg) followed by a continuous i.v. infusion (30 ng/kg/min) for 9 hours. After one hour of infusion, a baseline (time 0) blood sample was withdrawn from the arterial catheter and processed and stored as described above. The rats were then dosed (typically 0.01 to 100 mg/kg) with the test compound p.o. by oral gavage or parenterally via the arterial catheter (i.a.). Compounds were formulated in an appropriate vehicle (e.g., water (p.o.) or saline (i.a.)) at a physiologically compatible volume (typically 1-2 ml/kg). Additional blood samples were withdrawn at 0.083 (i.a. only), 0.25, 0.5, 1, 2, 3, 4, 5, 6, 7, 8, and 24 hours after dosing with compound and processed and stored as above for later determination of PAC, PCC, and plasma compound concentration (by LC/MS/MS). Oral bioavailability and traditional pharmacokinetic (PK) parameters were estimated from the plasma compound concentrations.
Based on the plasma compound concentration at each dose, the PK/PD (pharmacodynamic) profiles (reduction of PAC and PCC) of each compound were determined.

[2] = target: T2, Human CYP11B1 (Homo sapiens, UniProt P15538); assay: In vitro human CYP11B1 assay; format: biochemical; details: V79-4 cell homogenate, 11-deoxycortisol to cortisol, SPA
T2 construct: made in house; host or cells: V79-4 cell line #618 (stably selected with geneticin and hygromycin); sonicated homogenate, 500 x g supernatant
T2 sequence (P15538 25-503): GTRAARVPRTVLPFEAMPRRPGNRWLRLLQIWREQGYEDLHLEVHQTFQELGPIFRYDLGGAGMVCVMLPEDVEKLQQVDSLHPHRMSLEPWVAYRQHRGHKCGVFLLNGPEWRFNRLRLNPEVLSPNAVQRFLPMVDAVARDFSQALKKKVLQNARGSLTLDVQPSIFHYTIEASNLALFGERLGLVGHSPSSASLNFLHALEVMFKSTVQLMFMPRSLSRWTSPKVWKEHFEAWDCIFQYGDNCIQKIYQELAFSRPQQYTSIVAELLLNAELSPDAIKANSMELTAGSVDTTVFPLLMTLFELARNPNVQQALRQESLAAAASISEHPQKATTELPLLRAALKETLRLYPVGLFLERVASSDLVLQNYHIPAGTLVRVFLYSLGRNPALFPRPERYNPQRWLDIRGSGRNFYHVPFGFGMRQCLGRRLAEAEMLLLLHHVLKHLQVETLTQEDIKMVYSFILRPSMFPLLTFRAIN
Description: Complete EDTA-free protease inhibitor tablets were obtained from Roche Applied Science (Indianapolis, Ind.). Dulbecco's modified Eagle medium (DMEM), antibiotic, geneticin, hygromycin, and fetal bovine serum (FBS) were products of Invitrogen (Carlsbad, Calif.). NADPH Regeneration Solution A and Solution B were purchased from BD Biosciences Clontech (Palo Alto, Calif.). Anti-mouse PVT SPA beads and [1,2,6,7-^3H(N)]hydrocortisone were acquired from Amersham (Piscataway, N.J.) and PerkinElmer (Boston, Mass.), respectively.
Following 4 days of growth, cells were washed once with PBS, scraped and collected in PBS, and centrifuged at 1,300 rpm for 6 min. […] The sonication procedure was repeated 3 more times, with a 5 min rest on ice between sonications. The sonicated material was then spun at 500×g for 4 min to remove unbroken cells. The supernatant was brought to a final glycerol concentration of 5%, flash-frozen in liquid nitrogen, and stored at −80° C.
The CYP11B1 assays were performed in 96-well U-bottom non-tissue-culture-treated plates. […] Plates were then centrifuged at 2,400 rpm for 6 min, and 50 μl of supernatant was removed for measurement of cortisol content by scintillation proximity assay (SPA). Measurement of cortisol was performed using a 96-well plate format. […] Anti-mouse PVT SPA beads (50 μl) were then added to each well and incubated overnight at room temperature prior to counting in a Microbeta plate counter. The amount of cortisol in each sample was calculated by comparing with a standard curve generated using known quantities of the hormone. Full concentration-response curves of an inhibitor were performed at least 3 times. The IC50 values were derived using a non-linear least squares curve-fitting program from IDBS XLfit.

Compound | % Reduction from baseline PCC t = 1 h ([1]; 10 mg/kg p.o.) | % Reduction from baseline PCC 8 h ([1]; 10 mg/kg p.o.) | IC50 [2] | % Reduction from baseline PCC t = 1 h ([1]; 3 mg/kg i.a.) | % Reduction from baseline PCC 8 h ([1]; 3 mg/kg i.a.) | % Reduction from baseline PCC t = 1 h ([1]; 30 mg/kg i.a.) | % Reduction from baseline PCC 8 h ([1]; 30 mg/kg i.a.)
N#Cc1ccc(C2CCCCc3cncn32)c(Br)c1 (racemic) [3-bromo-4-(6,7,8,9-tetrahydro-5H-imidazo[1,5-a]azepin-5-yl)benzonitrile racemate, 3-bromo-4-(6,7,8,9-tetrahydro-5H-imidazo[1,5-a]azepin-5-yl)benzonitrile] | 70% | 87% | 0.2 nM |  |  |  | 
N#Cc1ccc(C2CCCCc3cncn32)c(-c2ccc(F)cc2)c1 (single isomer, unassigned) [4′-fluoro-6-(6,7,8,9-tetrahydro-5H-imidazo[1,5-a]azepin-5-yl)biphenyl-3-carbonitrile] |  |  | 0.3 nM | 89% | 43% |  | 
COc1ccc(CN(C)C(=O)C2(c3ccc(C#N)cc3Cl)CCc3cncn32)cc1 (stereo not drawn) [5-(2-chloro-4-cyanophenyl)-N-(4-methoxybenzyl)-N-methyl-6,7-dihydro-5H-pyrrolo[1,2-c]imidazole-5-carboxamide] |  |  | 0.8 nM |  |  | 76% | 78%
